From patent US20240225985A1, “BRIGHTENING COMPOSITIONS AND METHODS OF USE” (Alastin Skincare, Inc., priority 2021, published 2024) come the findings set out here.

Experiment [1] deals with melanocytes. As to the kind of experiment: Gene expression study (RNA sequencing) in PGE2-induced melanocytes. Format: cell-based, human. The following applies: melanocytes induced with 10 uM PGE2, 24 hours of compound exposure. Here is the method: Four cell types associated with pigmentation pathways—melanocytes, keratinocytes, fibroblasts and endothelial (HUVEC) cells—were analyzed for gene expression.
To simulate the UV stimulatory pigmentation pathway process, melanocytes were pre-treated with PGE2, a normal direct consequence of UV light exposure usually emanating from exposed keratinocytes. After the 48 hour attachment culture, these melanocytes were induced with 10 uM PGE2 in melanocyte media for 24 hrs. The four primary human adult dermal cell lines were cultured and plated in well plates in triplicate and then treated with 11 different compound treatments (plus DMSO control). After 48 hours of attachment culture, the remaining fibroblasts, HUVECs and keratinocytes were treated with the test compounds listed in Table 8.
After 24 hours of compound exposure, RNA lysate preparation was carried out and samples were shipped to MedGenome for RNA extraction, library construction and sequencing to 25M paired end 100 bp reads per sample. Library prep and sequencing was completed at MedGenome.

Another experiment relates to MITF. Description: In vitro MITF gene expression test in cultured fibroblasts. The class given is cell-based. The settings on record: 48 hours, 80 ppm Hexapeptide-12, 120 ppm Tripeptide-1 or blend of both, negative = downregulation. The procedure:
Microphthalmia-associated transcription factor (MITF) is a master regulator of pigmentation and melanin transfer and a potential new target for hyperpigmentation and melanoma. In vitro MITF gene expression tests were carried out to ascertain differences between individual peptides (tripeptide-1 and hexapeptide-12) and their combination in terms of MITF downregulation.
Specifically, the tests were conducted by culturing fibroblasts and then adding tripeptide-1, hexapeptide-12, or a combination of both. After 48 hours, MITF gene expression was analyzed. […] This increased expression continued to manifest and increased even further at the 72 hour time point.

Experiment [2] concerns melanocytes. Description: In vitro melanocyte comparative analysis via absorbance readings (melanin production). The class given is cell-based. The settings on record: for Regulation of melanogenesis (decreased absorption denoting decreased melanin formation): melanocytes, summary of Table 10. Here is the method:
Melanocytes were cultured in 6-well plates containing growth media. Once confluent, 2 concentrations of each of the 10 compounds were added to the cells in triplicate wells for 4 days. There were a total of eleven 6-well plates, one for each compound treatment and one for the vehicle control. Absorbance readings were taken on the lysates prepared for each well of the 6-well plates, normalizing for cells counts. The model was initially tested for accuracy and validated using hexapeptide-12 in view of strong gene expression results with melanocyte cell line in the first study—confirmation of decreased stimulation was obtained. Additional validation was carried out using MSH addition to media to confirm increased stimulation of melanin production. The following compounds used in this study are seen in Table 9.

In a further experiment the test system is endothelial cells. Description: Gene expression of PMEL, tyrosinase genes, MC1/4R, EDNRB, MITF, ERK1/2, JNK, AKT1. The class given is cell-based. The settings on record: after treatment of endothelial cells as printed. The text has this: The methods similar to Examples 3-4 were used to measure expression of PMEL, tyrosinase genes, MC1/4R, EDNRB, MITF, ERK1/2, JNK, and ANKT1.
FIGS. 10A-10D illustrates the expression of PMEL (FIG. 10A), Tyrosinase genes (FIG. 10B), MC1/4R (FIG. 10C), and EDNRB (FIG. 10D) after treatment of endothelial cells with lactoferrin (Lacto), peptide derived from lactoferrin (TCV), hexapeptide-12 (Hex12), tripeptide-1 and hexapeptide-12 (TriHex), hexapeptide-11 (Hex11), tranexamic acid (Tran acid) octapeptide (Octa), phosphatidylserine (phos), Cannabidiol (CBD), and all (total).
MITF is regulated by phosphorylation. Specifically, the MAPK and Akt pathways are known to phosphorylate MITF at certain sites. FIGS. 12A-12C illustrate the expression of ERK1/2 (MAPK3/MAPK1) (FIG. 12A), JNK (FIG. 12B), AKT1 (FIG. 12C) after treatment of endothelial cells with lactoferrin (Lacto), peptide derived from lactoferrin (TCV), hexapeptide-12 (Hex12), tripeptide-1 and hexapeptide-12 (TriHex), hexapeptide-11 (Hex11), octapeptide (Octa), phosphatidylserine (phos), Cannabidiol (CBD), and all (total).

Where [3] appears, read: higher concentration (Lactoferrin 1000, HEX-11 200, Phosphatidylserine 500, Silymarin 20, Sesamol 100, Tranexamic Acid 1000, HEX-12 4.9, ug/mL or ug/uL; Phytoene/Phytofluene 5.00%), 4 days, control = 0.0 row.
[4] abbreviates: lower concentration (Lactoferrin 500, HEX-11 100, Phosphatidylserine 250, Silymarin 10, Sesamol 50, Tranexamic Acid 500, HEX-12 2.9, ug/mL or ug/uL; Phytoene/Phytofluene 2.50%), 4 days, control = 0.0 row.

Ends that are not written are not given here. * marks the point of attachment. Palmitoyl = CCCCCCCCCCCCCCCC(=O)*

Take “Hexapeptide-12: hexapeptide-12; VGVAPG per Pal-VGVAPG (SEQ ID NO:25) in b49 (Palmitoyl-VGVAPG)”: the entries for the “melanogenic gene activity in melanocytes” value in the experiment on melanocytes [1] and in the experiment on melanocytes [1] (listed as hexapeptide-12) were “particularly dominant in melanogenic activity” and “significant effects on melanogenesis activity”, respectively. In addition, in the experiment with MITF, the “MITF gene expression (down-/upregulation)” value is given as −1.16. Also, the “Absorbance 405 nm” value is recorded as 0.96 in the experiment with melanocytes [2] (setting [3]) and 1.32 in the experiment on melanocytes [2] (setting [4]). In addition, the “Absorbance 490 nm” value in the experiment on melanocytes [2] (setting [3]) turned out to be 0.64; with melanocytes [2] (setting [4]), 0.94. For the same compound, the “Absorbance 492 nm” value with melanocytes [2] (setting [3]) is 0.46; in the experiment on melanocytes [2] (setting [4]), 0.64. Further, the “Regulation of melanogenesis (decreased absorption denoting decreased melanin formation)” value with melanocytes [2] was “Regulation of melanogenesis was observed”. The “melanogenic activity (expression of PMEL, tyrosinase genes, MC1/4R, EDNRB, kinases)” value is “significant effects on such melanogenic activity” in the experiment on endothelial cells and “robust melanogenic activity” with endothelial cells (listed as hexapeptide-12).
`NC[C@H]1CC[C@H](C(=O)O)CC1` [Tranexamic Acid, Tranexamic acid]: in the experiment on melanocytes [2] (setting [3]), the “Absorbance 405 nm” value is reported as 0.406, the “Absorbance 490 nm” value is given as 0.243 and the “Absorbance 492 nm” value is recorded as 0.176. In the experiment with melanocytes [2] (setting [4]), the “Absorbance 405 nm” value amounted to 0.395, the “Absorbance 490 nm” value stood at 0.254 and the “Absorbance 492 nm” value was 0.187. The “Regulation of melanogenesis (decreased absorption denoting decreased melanin formation)” value in the experiment with melanocytes [2] is reported as “Regulation of melanogenesis was also observed”.
Consider “MSH: MSH addition to media to confirm increased stimulation of melanin production (SYSMEHFRWGKPV; ends and bridges not checked; UniProt P01189 138-150, looked up)”, for which the “Absorbance 405 nm” value with melanocytes [2] (MSH 10 nm media (validation of increased melanin production), control 1.649) turned out to be 1.921. In addition, in the experiment on melanocytes [2] (MSH 10 nm media, control 0.501), the “Absorbance 492 nm” value was 0.573. For the same compound, in the experiment with melanocytes [2] (MSH 10 nm media, control 0.971), the “Absorbance 490 nm” value is 1.155.
In the case of Tripeptide-1, the “MITF gene expression (down-/upregulation)” value is given as 1.72 with MITF (listed as Tripeptide) and “+1.72” in the experiment with MITF (listed as tripeptide-1).
For `Oc1ccc2c(c1)OCO2` [Sesamol, 3,4-Methylenedioxyphenol], in the experiment on melanocytes [2] (setting [3]), the “Absorbance 405 nm” value worked out at 0.465, the “Absorbance 490 nm” value stood at 0.252 and the “Absorbance 492 nm” value turned out to be 0.183. In addition, in the experiment with melanocytes [2] (setting [4]), the “Absorbance 405 nm” value is reported as 0.602, the “Absorbance 490 nm” value was 0.361 and the “Absorbance 492 nm” value was 0.24. The “Regulation of melanogenesis (decreased absorption denoting decreased melanin formation)” value with melanocytes [2] is recorded as “Regulation of melanogenesis was also observed”.
